The structures appear in SMILES notation.

For assay [1], the target named is T1, luciferase (Photinus pyralis, UniProt P08659). As to conditions: inhibition of luciferase; literature value; cited from earlier work.
Assay [2] has as its target T1, luciferase. In words: Inhibition of the luciferase reaction (literature Ki values). The class given is biochemical. Particulars: if 10^-6 M ATP generated 10^-6 M AMP; estimated from Ki; 1 µM. The text has this: To the extent free AMP and free oxluciferin are formed in the reaction it could also be of interest to study whether this would affect the product inhibition. […] Consequently it may under certain conditions be important to counteract the effect of the generation of free oxyluciferin. The addition of D-luciferin analog makes the initial inhibition of the luciferase so big that the additional inhibition from the oxyluciferin, which is continuously formed during the reaction, will be negligible. The addition of inhibiting concentrations of a D-luciferin analog will thus stabilize the light level.

T1 sequence (P08659 whole entry): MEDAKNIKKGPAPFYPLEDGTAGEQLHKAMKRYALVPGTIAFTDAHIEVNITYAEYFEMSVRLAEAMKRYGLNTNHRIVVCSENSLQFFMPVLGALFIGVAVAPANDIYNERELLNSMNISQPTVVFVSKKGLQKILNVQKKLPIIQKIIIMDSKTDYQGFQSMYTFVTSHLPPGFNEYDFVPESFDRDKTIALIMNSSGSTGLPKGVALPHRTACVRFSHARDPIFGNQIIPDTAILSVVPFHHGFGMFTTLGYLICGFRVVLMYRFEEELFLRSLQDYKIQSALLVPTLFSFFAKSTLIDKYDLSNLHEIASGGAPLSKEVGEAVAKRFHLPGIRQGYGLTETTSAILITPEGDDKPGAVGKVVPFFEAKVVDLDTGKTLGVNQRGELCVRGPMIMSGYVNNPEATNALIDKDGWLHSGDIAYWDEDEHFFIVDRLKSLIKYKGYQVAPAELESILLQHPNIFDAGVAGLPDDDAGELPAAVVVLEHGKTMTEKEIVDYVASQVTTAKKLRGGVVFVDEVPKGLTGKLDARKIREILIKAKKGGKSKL

As for `O=C1CSC(c2nc3ccc(O)cc3s2)=N1` [oxyluciferin], the Ki (as a rule, a dissociation constant, usually derived from enzyme kinetics or from competition with a known ligand) in assay [1] is 0.23 µM.
For the compound `Nc1ncnc2c1ncn2[C@@H]1O[C@H](COP(=O)(O)O)[C@@H](O)[C@H]1O` [AMP, adenosinel monophosphate], the Ki in assay [1] was 240 µM. Also, the “effect on the luciferase activity” value in assay [2] was “less than 0.5%”.

The values above are taken from patent US4246340A, “Method and reagent for bioluminiscence” (LKB-Producter AB, priority 1979, dated 1981).
